From patent US12187705B2, “Heteroaryl-triazole and heteroaryl-tetrazole compounds as pesticides” (Bayer Aktiengesellschaft, priority 2018, dated 2025)

Tests used:
Assay type in all cases: in vivo
[1] = system: Spodoptera frugiperda; experiment: Spodoptera frugiperda spray test; details: in Zea mays, 168 h
Procedure, shortened: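 Caterpillars are placed on sprayed, dried maize leaf sections. Sprays contain compound diluted in water with emulsifier at 1000 ppm; mortality in % is determined 7 days later.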

[2] = system: Ctenocephalides felis; experiment: Ctenocephalides felis in-vitro contact test adult cat flea; details: 5 μg/cm^2 (=500 g/ha), after 48 hours; for pest or weed control at 5 µg/cm2, 5 µg/cm2: Ctenocephalides felis, read-out: efficacy (fleas dead or moribund)
Procedure, shortened: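 Compound in acetone was coated on glass tube walls, giving 5 μg/cm^2 at 900 ppm. 5-10 adult cat fleas were held at room temperature for 48 h, then heat-challenged at 45-50° C. Fleas immotile or uncoordinated were scored dead/moribund, expressed as % efficacy.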

[3] = system: Myzus persicae; experiment: Myzus persicae oral test; details: 120 h
Procedure, shortened: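 Feeding test: compound diluted in water was combined with IPL41 insect medium (33%+15% sugar) under a parafilm seal. A mixed population of green peach aphids fed through the membrane. Mortality (%) was scored after 5 days.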

[4] = system: Diabrotica balteata; experiment: Diabrotica balteata spray test; details: 160 μg/well, wheat seeds, after 7 days; for pest or weed control at 160 µg/disc, 160 µg/well: Diabrotica balteata, 168 h, read-out: efficacy (seedlings grown)
Procedure, shortened: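 Wheat seeds germinated 1 day on agar were sprayed with compound diluted in water with 1000 ppm emulsifier, then infested with 10-20 Diabrotica balteata larvae. Efficacy in % scored after 7 days: 100% = seedlings grown as untreated, uninfected control; 0% = no seedlings grown.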

[5] = system: Nezara viridula; experiment: Nezara viridula spray test; details: in Hordeum vulgare, 96 h
Procedure, shortened: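 Barley plants infested with stink bug larvae were sprayed with compound diluted in water containing 1000 ppm emulsifier. Mortality (%) was scored after 4 days, 100% meaning all bugs killed.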

[6] = system: Phaedon cochleariae; experiment: Phaedon cochleariae spray test; details: foliar, 168 h, Chinese cabbage leaf disks, after 7 days
Method: Phaedon cochleariae—Spray Test
(§1) To produce a suitable preparation of active compound, 1 part by weight of active compound is mixed with the stated amount of solvents and is diluted with water, containing an emulsifier concentration of 1000 ppm, to the desired concentration. Further test concentrations are prepared by dilution with emulsifier containing water.
Chinese cabbage (Brassica pekinensis) leaf disks are sprayed with a preparation of the active ingredient of the desired concentration. Once dry, the leaf disks are infested with mustard beetle larvae (Phaedon cochleariae).
After 7 days mortality in % is determined. 100% means all beetle larvae have been killed and 0% means none of the beetle larvae have been killed.

[7] = system: Nilaparvata lugens; experiment: Nilaparvata lugens spray test; details: Nilaparvata lugens, in Oryza sativa, 96 h
Procedure, shortened: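 Rice plants sprayed with compound diluted in water containing 1000 ppm emulsifier, then infested with brown planthopper. Mortality (%) scored after 4 days, 100% meaning all insects killed.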

[8] = system: Tetranychus urticae; experiment: Tetranychus urticae spray test OP-resistant; details: French bean leaf disks, after 6 days; for mortality at 500 g/ha: Tetranychus urticae, foliar, 144 h; for mortality: 500 g/ha
Method: Tetranychus urticae—Spray Test OP-Resistant
as §1
French bean (Phaseolus vulgaris) leaf disks infected with all instars of the two spotted spidermite (Tetranychus urticae), are sprayed with a preparation of the active ingredient of the desired concentration.
After 6 days mortality in % is determined. 100% means all spider mites have been killed and 0% means none of the spider mites have been killed.

[9] = system: Ctenocephalides felis; experiment: Ctenocephalides felis oral test; details: for mortality at 100 ppm: Ctenocephalides felis, in Bos taurus, po, 48 h
Procedure, shortened: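 About 20 adult unfed fleas fed through parafilm on cattle blood containing compound (DMSO concentrate diluted in blood); blood held at 37° C., fleas at room temperature. Mortality in % scored after 2 days (100% = all killed).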

[10] = system: Boophilus microplus; experiment: Boophilus microplus injection test; details: 20 μg/animal, egg deposition after 7 days; for pest or weed control at 0.02 mg: Rhipicephalus microplus, 168 h, read-out: efficacy (infertile eggs)
Procedure, shortened: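 Engorged adult female ticks, five per dose, received 1 μl of compound in DMSO injected into the abdomen and were kept in a climate chamber. Fertile egg deposition was checked after 7 days, with eggs of unclear fertility held until hatching at about 42 days. Efficacy 100% = all eggs infertile, 0% = all fertile.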

[11] = system: Rhipicephalus sanguineus; experiment: Rhipicephalus sanguineus in-vitro contact test with adult brown dog ticks; details: 5 μg/cm^2 (=500 g/ha), after 48 hours
Method: Rhipicephalus sanguineus—In-Vitro Contact Test with Adult Brown Dog Ticks
9 mg compound is solved in 1 ml acetone and diluted with acetone to the desired concentration. 250 μl of the test solution is filled in 25 ml glass test tubes and homogeneously distributed on the inner walls by rotation and tilting on a shaking device (2 h at 30 rpm). With a compound concentration of 900 ppm, an inner surface of 44.7 cm^2 and a homogeneous distribution, a dose of 5 μg/cm^2 is achieved.
After the solvent has evaporated, each test tube is filled with 5-10 adult brown dog ticks (Rhipicephalus sanguineus), closed with a perforated lid and incubated in a lying position at room temperature and relative humidity. After 48 hours efficacy is determined. The ticks are patted on the ground of the tubes and are incubated on a heating plate at 45-50° C. for at most 5 minutes. Immotile or uncoordinated moving ticks, which are not able to escape the heat by climbing upwards, are marked as dead or moribund.
An efficacy of 100% means all ticks are dead or moribund; 0% means no ticks are dead or moribund.

[12] = system: cattle ticks (Boophilus microplus) strane Parhurst, SP-resistant; experiment: Boophilus microplus dip test; details: 100 ppm, egg deposition after 7 days
Method: Boophilus microplus—Dip Test
Test animal: cattle ticks (Boophilus microplus) strane Parhurst, SP-resistant
Solvent: dimethyl sulfoxide
To produce a suitable preparation of active compound, 10 mg of active compound are dissolved in 0.5 ml solvent, and the concentrate is diluted with water to the desired concentration.
This compound solution is pipetted into tubes. 8-10 engorged, adult, female cattle ticks (Boophilus microplus) are placed in perforated tubes. These tubes are immersed in the aqueous compound solution until the ticks are completely moistened. After the liquid has drained off, the ticks are transferred to a filter paper in a plastic tray and stored in a climate chamber.
After 7 days egg deposition of fertile eggs is monitored. Eggs where fertility is not visible are stored in a climate chamber till hatching after about 42 days. An efficacy of 100% means all eggs are infertile; 0% means all eggs are fertile.

[13] = system: Culex quinquefasciatus strain P00; experiment: Culex quinquefasciatus test (CULXFA surface treatment & contact assay); details: 24 hours after contact, read-out: efficacy (mortality); for mortality at 4 mg/m2: surface concentration 4 mg/m^2, 30 minutes exposure; for mortality at 20 mg/m2: surface concentration 20 mg/m^2, 30 minutes exposure
Procedure, shortened: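 Compound dissolved in acetone (2 mg/ml) with 2000 ppm rapeseed oil methyl ester, applied to glazed tile and dried. Adult strain P00 mosquitoes exposed to the surface for 30 minutes. Percent mortality scored 24 hours after contact.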

[14] = system: Aedes aegypti strain MONHEIM; experiment: Aedes aegypti test (AEDSAE surface treatment & contact assay); details: 24 hours after contact, read-out: efficacy (mortality); for mortality at 4 mg/m2: surface concentration 4 mg/m^2, 30 minutes exposure; for mortality at 20 mg/m2: surface concentration 20 mg/m^2, 30 minutes exposure
Procedure, shortened: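 Compound dissolved in acetone (2 mg/ml) with 2000 ppm rapeseed oil methyl ester and dried onto a glazed tile. Adult mosquitoes held on the treated surface for 30 minutes exposure. Percent mortality scored 24 hours after contact.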

[15] = system: Myzus persicae; experiment: Myzus persicae spray test; details: in Brassica rapa, foliar, 120 h
Procedure, shortened: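 Chinese cabbage leaf disks infested with all aphid instars were sprayed with compound diluted in water containing emulsifier (1000 ppm). Mortality (%) was scored after 5 days, 100% meaning all aphids killed.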

SMILES | mortality at 500 g/ha [1] [%] | pest or weed control at 5 µg/cm2, 5 µg/cm2 [2] [%] | mortality at 4 ppm [3] [%] | mortality at 20 ppm [3] [%] | pest or weed control at 160 µg/disc, 160 µg/well [4] [%] | mortality at 500 g/ha [5] [%] | mortality at 500 g/ha [6] [%] | mortality at 500 g/ha [7] [%] | mortality at 100 ppm [9] [%] | pest or weed control at 0.02 mg [10] [%] | efficacy (infertile eggs) [12] [%] | efficacy (fleas dead or moribund) [2] [%] | efficacy (seedlings grown) [4] [%] | efficacy (infertile eggs) [10] [%] | further results
CC(c1ncnn1-c1ncccn1)N(CC1CC1)C(=O)c1cccc(S(=O)(=O)C(F)(F)F)c1 (centres unmarked) [Example I-005, N-(cyclopropylmethyl)-N-{1-[1-(pyrimidin-2-yl)-1H-1,2,4-triazol-5-yl]ethyl}-3-[(trifluoromethyl)sulfonyl]benzamide] | 100 | 90 | 90 | 100 | 100 | 100 | 100 | 100 | – | – | – | – | – | – | mortality at 500 g/ha [8]: 80%
CC(c1ncnn1-c1ncccn1)N(CC1CC1)C(=O)c1cncc(S(=O)(=O)C(F)(F)F)c1 (centres unmarked) [Example I-006] | – | 90 | 90 | 100 | 100 | 100 | 100 | 100 | 100 | 100 | – | – | – | – | pest or weed control at 5 µg/cm2, 5 µg/cm2 ([11]; Rhipicephalus sanguineus, read-out: efficacy (ticks dead or moribund)): 80%; mortality at 500 g/ha [8]: 95%
CC(c1ncnn1-c1ncccn1)N(CC1CC1)C(=O)c1cc(C2CC2)cc(C(F)(F)F)c1 (centres unmarked) [Example I-008] | 100 | – | 100 | 100 | 100 | 100 | 100 | 100 | – | – | – | – | – | – | mortality at 500 g/ha [8]: 95%
CC(NC(=O)c1cc(Cl)cc(S(C)(=O)=O)c1)c1ncnn1-c1ncccn1 (centres unmarked) [Example I-020, 3-chloro-5-(methylsulfonyl)-N-{1-[1-(pyrimidin-2-yl)-1H-1,2,4-triazol-5-yl]ethyl}benzamide] | – | 100 | 100 | 100 | 100 | 100 | 100 | 100 | 100 | 100 | 100 | – | – | – | –
Cc1nc(C(C)NC(=O)c2cc(Cl)cc(S(C)(=O)=O)c2)n(-c2ncccn2)n1 (centres unmarked) [Example I-034] | – | – | – | – | – | – | – | – | – | – | 100 | 100 | 100 | 100 | efficacy (ticks dead or moribund) [11]: 80%
CC(NC(=O)c1cc(Cl)cc(S(C)(=O)=O)c1)c1ncnn1-c1ccc(C#N)cn1 (centres unmarked) [Example I-035] | – | – | – | – | – | – | – | – | – | – | 100 | 100 | 100 | 100 | –
CC(NC(=O)c1cc(Cl)cc(S(C)(=O)=O)c1)c1ncnn1-c1ncc(F)cn1 (centres unmarked) [Example I-036] | – | – | – | – | – | – | – | – | – | – | 90 | 100 | 100 | 100 | efficacy (ticks dead or moribund) [11]: 80%
C[C@@H](NC(=O)c1cc(Cl)cc(S(C)(=O)=O)c1)c1ncnn1-c1ncc(Cl)cn1 [Example I-038] | 100 | 100 | 100 | – | – | 100 | – | – | 100 | 100 | 100 | – | – | – | mortality at 4 mg/m2 [13]: 80 to 100%; mortality at 20 mg/m2 [13]: 80 to 100%; mortality at 4 mg/m2 [14]: 80 to 100%; mortality at 20 mg/m2 [14]: 90 to 100%
CCS(=O)(=O)c1cc(Cl)cc(C(=O)N[C@@H](C)c2ncnn2-c2ncccn2)c1 [Example I-044, 3-chloro-5-(ethylsulfonyl)-N-{(1S)-1-[1-(pyrimidin-2-yl)-1H-1,2,4-triazol-5-yl]ethyl}benzamide] | 83 | 100 | 100 | – | 100 | 100 | – | 100 | 100 | 100 | 100 | – | – | – | mortality at 500 g/ha [15]: 100%; mortality at 4 mg/m2 [13]: 80 to 100%; mortality at 20 mg/m2 [13]: 80 to 100%; mortality at 4 mg/m2 [14]: 80 to 100%; mortality at 20 mg/m2 [14]: 90 to 100%
CC(C)Sc1cc(Cl)cc(C(=O)N[C@@H](C)c2ncnn2-c2ncccn2)c1 [Example I-046, 3-chloro-5-(isopropylsulfanyl)-N-{(1S)-1-[1-(pyrimidin-2-yl)-1H-1,2,4-triazol-5-yl]ethyl}benzamide] | 100 | 100 | 100 | – | – | 100 | – | 90 | 100 | 100 | 100 | – | – | – | mortality at 500 g/ha [15]: 100%; mortality at 20 mg/m2 [13]: 80 to 100%; mortality at 20 mg/m2 [14]: 90 to 100%
CC(NC(=O)c1cc(Cl)cc(C2CC2)c1)c1ncnn1-c1ncccn1 (centres unmarked) [Example I-050] | – | – | – | – | – | – | – | – | – | – | 90 | 100 | 80 | 100 | –
CC(NC(=O)c1ccc(S(=O)(=O)C(F)(F)F)cc1)c1ncnn1-c1ncccn1 (centres unmarked) [Example I-056] | – | – | – | – | – | – | – | – | – | – | – | – | – | – | mortality ([9]; 100 ppm in cattle blood, after 2 days): 90%; mortality [8]: 90%
CC(NC(=O)c1cncc(-c2ccc(Cl)cc2)c1)c1ncnn1-c1ncccn1 (centres unmarked) [Example I-112] | – | – | – | – | – | – | – | – | – | – | – | – | – | – | mortality [8]: 90%
